This passage reports IC50 results from patent publication US10174035B2, “6-morpholinyl-2-pyrazolyl-9H-purine derivatives and their use as PI3K inhibitors” (Daiichi Sankyo Company, Limited, priority 2015, dated 2019).

SMILES strings stand for the structures.

What is called IC50 is the point on the concentration scale where inhibition reaches its midpoint.

The test deals with recombinant PI3K δ enzyme (Homo sapiens (Human), UniProt O00329). Description: In vitro enzyme assay (Kinase-Glo luminescent kinase assay), PI3Kδ. The format is biochemical. As to the method: The Kinase-Glo luminescent kinase assay kit (from Promega) was used to measure kinase activity. In this assay, amount of ATP remaining in solution following a kinase reaction is measured. The effect of compounds on PI3Kδ inhibition was carried out by adding 2.29 μg/ml of recombinant PI3K δ enzyme (Proteros, Germany) to reaction mixture containing assay buffer (50 mM HEPES, pH 7.4, 50 mM NaCl, 0.05% CHAPS) supplemented with 10 mM MgCl2, 5 mM DTT, 60 μM Phosphatidyl inositol bisphosphate (PIP2) and 10 μM ATP in the absence or presence of different concentrations of the compounds in a final volume of 15 μl/well, in a 384 well plate. The reaction mixture was incubated for 2 hours at room temperature. At the end of incubation period the equal volume of Kinase-Glo plus (Promega, V3772), was added per well and the luminescence was measured after incubating for 10 minutes at room temperature in dark. Results were calculated by measuring the luminescence units of test samples to blanks containing no enzyme.
Chain of recombinant PI3K δ enzyme (O00329 whole entry, species assumed): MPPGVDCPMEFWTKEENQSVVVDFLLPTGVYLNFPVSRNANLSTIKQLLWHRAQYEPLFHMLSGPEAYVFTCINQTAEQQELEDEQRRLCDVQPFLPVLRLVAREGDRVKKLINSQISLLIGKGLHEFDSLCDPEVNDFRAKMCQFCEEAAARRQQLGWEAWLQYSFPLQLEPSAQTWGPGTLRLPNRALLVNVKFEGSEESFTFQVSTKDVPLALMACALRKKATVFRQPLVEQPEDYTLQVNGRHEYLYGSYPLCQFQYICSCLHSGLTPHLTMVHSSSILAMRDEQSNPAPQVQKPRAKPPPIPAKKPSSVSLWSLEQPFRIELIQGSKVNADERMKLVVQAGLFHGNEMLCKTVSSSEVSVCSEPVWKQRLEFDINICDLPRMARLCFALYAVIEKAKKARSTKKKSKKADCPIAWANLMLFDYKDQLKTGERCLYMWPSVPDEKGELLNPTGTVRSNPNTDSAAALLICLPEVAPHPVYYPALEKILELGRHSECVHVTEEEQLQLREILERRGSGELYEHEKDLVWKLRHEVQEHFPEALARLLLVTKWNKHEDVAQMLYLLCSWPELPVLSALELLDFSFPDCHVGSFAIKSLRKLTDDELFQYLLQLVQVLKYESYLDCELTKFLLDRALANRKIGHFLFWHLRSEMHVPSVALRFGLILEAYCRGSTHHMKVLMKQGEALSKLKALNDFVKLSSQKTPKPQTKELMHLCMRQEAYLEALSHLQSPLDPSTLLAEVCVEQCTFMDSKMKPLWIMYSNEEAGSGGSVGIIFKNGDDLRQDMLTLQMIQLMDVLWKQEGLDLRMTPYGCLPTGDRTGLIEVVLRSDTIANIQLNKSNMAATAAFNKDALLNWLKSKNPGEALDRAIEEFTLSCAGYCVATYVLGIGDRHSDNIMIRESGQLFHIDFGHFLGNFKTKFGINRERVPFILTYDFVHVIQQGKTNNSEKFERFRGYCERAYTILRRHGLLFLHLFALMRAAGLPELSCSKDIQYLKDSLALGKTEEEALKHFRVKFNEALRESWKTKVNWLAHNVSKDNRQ
Chain of recombinant PI3K δ enzyme (P27986 whole entry partner, species assumed): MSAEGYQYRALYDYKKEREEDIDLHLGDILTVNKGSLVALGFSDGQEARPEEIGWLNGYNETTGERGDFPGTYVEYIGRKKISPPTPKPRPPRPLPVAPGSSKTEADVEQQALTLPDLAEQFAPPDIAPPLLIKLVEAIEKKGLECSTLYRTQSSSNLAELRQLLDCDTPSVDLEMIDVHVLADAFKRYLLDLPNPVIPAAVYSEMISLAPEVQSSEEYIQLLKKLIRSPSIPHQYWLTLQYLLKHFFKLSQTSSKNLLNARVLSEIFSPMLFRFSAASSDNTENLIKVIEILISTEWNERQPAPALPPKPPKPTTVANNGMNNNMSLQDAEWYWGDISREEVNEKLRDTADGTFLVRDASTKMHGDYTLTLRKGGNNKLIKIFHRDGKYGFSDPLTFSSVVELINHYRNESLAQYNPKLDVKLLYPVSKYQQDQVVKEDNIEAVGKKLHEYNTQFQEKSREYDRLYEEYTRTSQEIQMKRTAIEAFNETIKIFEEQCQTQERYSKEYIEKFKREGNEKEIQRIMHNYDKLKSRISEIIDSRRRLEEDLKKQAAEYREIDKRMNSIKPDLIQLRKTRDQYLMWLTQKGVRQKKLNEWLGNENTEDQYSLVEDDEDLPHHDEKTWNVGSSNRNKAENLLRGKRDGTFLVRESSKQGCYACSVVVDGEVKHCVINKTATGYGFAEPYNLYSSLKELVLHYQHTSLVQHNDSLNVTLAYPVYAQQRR
The compounds of the present invention were tested for their selectivity for PI3Kδ over PI3Kα, PI3Kβ and PI3Kγ following the above assay using specific recombinant enzymes (Proteros, Germany) for each kinase. Assay condition of kinase assay (PI3Kα, PI3Kβ, PI3Kγ and PI3Kδ) was as follows. Enzyme: 2.29 μg/mL; ATP: 10 μM; PIP2 substrate: 60 μM and Reaction Time: 2 hours.
(In general: Kinase-Glo reads ATP consumption through a luciferase reaction.)
Take `CN1CCN(CCNC(=O)c2nc3c(N4CCOCC4)nc(-c4cnn(C)c4)nc3[nH]2)CC1` [compound 70, N-[2-(4-methylpiperazin-1-yl)ethyl]-2-(1-methyl-1H-pyrazol-4-yl)-6-(morpholin-4-yl)-9H-purine-8-carboxamide]: the IC50 stood at 54 nM. Regarding `Cc1nn(C)cc1-c1nc(N2CCOCC2)c2nc(C(=O)NCC3(CO)COC3)[nH]c2n1` [compound 71, 2-(1,3-Dimethyl-1H-pyrazol-4-yl)-N-{[3-(hydroxymethyl)oxetan-3-yl]methyl}-6-(morpholin-4-yl)-9H-purine-8-carboxamide], the IC50 worked out at 30 nM.

As to `Cn1cc(-c2nc(N3CCOCC3)c3nc(C(=O)NCCCN4CCCC4=O)n(C)c3n2)cn1` [compound 73, 9-Methyl-2-(1-methyl-1H-pyrazol-4-yl)-6-(morpholin-4-yl)-N-[3-(2-oxopyrrolidin-1-yl)propyl]-9H-purine-8-carboxamide], the half-inhibitory concentration (IC50) turned out to be 60 nM. Take `O=C(c1nc2c(N3CCOCC3)nc(-c3cn[nH]c3)nc2[nH]1)N1CCC(N2CCOCC2=O)CC1` [compound 74, 4-(1-{[6-(Morpholin-4-yl)-2-(1H-pyrazol-4-yl)-9H-purin-8-yl]carbonyl}piperidin-4-yl)morpholin-3-one]: the 50% inhibitory concentration (IC50) was found to be 8 nM. As to `Cn1cc(-c2nc(N3CCOCC3)c3nc(C(=O)NCC(C)(C)CO)[nH]c3n2)cn1` [compound 76, N-(3-hydroxy-2,2-dimethylpropyl)-2-(1-methyl-1H-pyrazol-4-yl)-6-(morpholin-4-yl)-9H-purine-8-carboxamide], the IC50 is 101 nM. The result for `Cn1cc(-c2nc3[nH]c(C(=O)N4CCN5C(=O)COC[C@H]5C4)nc3c(N3CCOCC3)c2F)cn1` [compound 80, (9aR)-8-{[6-Fluoro-5-(1-methyl-1H-pyrazol-4-yl)-7-(morpholin-4-yl)-3H-imidazo[4,5-b]pyridin-2-yl]carbonyl}hexahydropyrazino[2,1-c][1,4]oxazin-4(3H)-one] reads 194 nM; that for `Cn1cc(-c2nc3[nH]c(C(=O)N4CCN(C5CCOCC5)CC4)nc3c(N3CCOCC3)c2F)cn1` [compound 81, [6-Fluoro-5-(1-methyl-1H-pyrazol-4-yl)-7-(morpholin-4-yl)-3H-imidazo[4,5-b]pyridin-2-yl][4-(tetrahydro-2H-pyran-4-yl)piperazin-1-yl]methanone], 7 nM. The result for `Cc1nn(C)cc1-c1nc2c(nc(C(=O)N3CCC(N4CCOCC4)CC3)n2CC2CC2)c(N2CCOCC2)c1F` [compound 83, [3-(Cyclopropylmethyl)-5-(1,3-dimethyl-1H-pyrazol-4-yl)-6-fluoro-7-(morpholin-4-yl)-3H-imidazo[4,5-b]pyridin-2-yl][4-(morpholin-4-yl)piperidin-1-yl]methanone] reads 92 nM; that for `Cc1nn(C)c(C)c1-c1nc2[nH]c(C(=O)N3CCC(N4CCOCC4)CC3)nc2c(N2CCOCC2)c1C` [compound 88, [6-Methyl-7-(morpholin-4-yl)-5-(1,3,5-trimethyl-1H-pyrazol-4-yl)-3H-imidazo[4,5-b]pyridin-2-yl][4-(morpholin-4-yl)piperidin-1-yl]methanone], 365 nM.

Turning to `Cc1nn(C)cc1-c1nc2[nH]c(C(=O)N3CCC(N4CCOCC4)CC3)nc2c(N2CCOCC2)c1C` [compound 89, [5-(1,3-Dimethyl-1H-pyrazol-4-yl)-6-methyl-7-(morpholin-4-yl)-3H-imidazo[4,5-b]pyridin-2-yl][4-(morpholin-4-yl)piperidin-1-yl]methanone], the half-maximal inhibitory concentration (IC50) stood at 46 nM. In the case of `Cc1c(-c2cnn(C)c2)nc2[nH]c(C(=O)N3CCC(N4CCOCC4)CC3)nc2c1N1CCOCC1` [compound 90, [6-Methyl-5-(1-methyl-1H-pyrazol-4-yl)-7-(morpholin-4-yl)-3H-imidazo[4,5-b]pyridin-2-yl][4-(morpholin-4-yl)piperidin-1-yl]methanone], the IC50 amounted to 188 nM.

With `Cc1nn(C)cc1-c1nc2[nH]c(C(=O)N3CCC(N4CCOCC4)CC3)nc2c(N2CCOCC2)c1Cl` [compound 91, [6-Chloro-5-(1,3-dimethyl-1H-pyrazol-4-yl)-7-(morpholin-4-yl)-3H-imidazo[4,5-b]pyridin-2-yl][4-(morpholin-4-yl)piperidin-1-yl]methanone], the IC50 is 31 nM. `Cn1cc(-c2nc3[nH]c(C(=O)N4CCC(N5CCOCC5)CC4)nc3c(N3CCOCC3)c2Cl)cn1` [compound 92, [6-Chloro-5-(1-methyl-1H-pyrazol-4-yl)-7-(morpholin-4-yl)-3H-imidazo[4,5-b]pyridin-2-yl][4-(morpholin-4-yl)piperidin-1-yl]methanone]: the IC50 came out at 163 nM.

`Cc1c(-c2nc3[nH]c(C(=O)N4CCC(N5CCOCC5)CC4)nc3c(N3CCOCC3)c2F)cnn1C` [compound 95, [5-(1,5-Dimethyl-1H-pyrazol-4-yl)-6-fluoro-7-(morpholin-4-yl)-3H-imidazo[4,5-b]pyridin-2-yl][4-(morpholin-4-yl)piperidin-1-yl]methanone]: the concentration for half-maximal inhibition (IC50) is 202 nM. With `CN(C)C1CCN(C(=O)c2nc3c(N4CCOCC4)cc(-c4cnn(C)c4)nc3n2C)CC1` [compound 100, [4-(Dimethylamino)piperidin-1-yl][3-methyl-5-(1-methyl-1H-pyrazol-4-yl)-7-(morpholin-4-yl)-3H-imidazo[4,5-b]pyridin-2-yl]methanone], the half-inhibitory concentration (IC50) stood at 64 nM. As to `CN(C)C1CCN(C(=O)c2nc3c(N4CCOCC4)cc(-c4cnn(C)c4)nc3[nH]2)CC1` [compound 101, [4-(Dimethylamino)piperidin-1-yl][5-(1-methyl-1H-pyrazol-4-yl)-7-(morpholin-4-yl)-3H-imidazo[4,5-b]pyridin-2-yl]methanone], the IC50 is 41 nM. For `Cn1cc(-c2cc(N3CCOCC3)c3nc(C(=O)NCCN4CCOCC4)[nH]c3n2)cn1` [compound 103, 5-(1-Methyl-1H-pyrazol-4-yl)-7-(morpholin-4-yl)-N-[2-(morpholin-4-yl)ethyl]-3H-imidazo[4,5-b]pyridine-2-carboxamide], the concentration for half-maximal inhibition (IC50) came to 147 nM.

On to `Cc1nn(C)cc1-c1cc(N2CCOCC2)c2nc(C(=O)N3CCC(N4CCOCC4)CC3)n(C)c2n1` [compound 104, [5-(1,3-Dimethyl-1H-pyrazol-4-yl)-3-methyl-7-(morpholin-4-yl)-3H-imidazo[4,5-b]pyridin-2-yl][4-(morpholin-4-yl)piperidin-1-yl]methanone], for which the IC50 came to 22 nM.

Turning to `Cn1cc(-c2nc3[nH]c(C(=O)NCCN4CCOCC4)nc3c(N3CCOCC3)c2F)cn1` [compound 105, 6-Fluoro-5-(1-methyl-1H-pyrazol-4-yl)-7-(morpholin-4-yl)-N-[2-(morpholin-4-yl)ethyl]-3H-imidazo[4,5-b]pyridine-2-carboxamide], the IC50 amounted to 32 nM. As for `Cn1cc(-c2cc(N3CCOCC3)c3nc(C(=O)N4CCC(N5CCOCC5)CC4)n(C)c3n2)cn1` [compound 106, [3-Methyl-5-(1-methyl-1-pyrazol-4-yl)-7-(morpholin-4-yl)-3H-imidazo[4,5-b]pyridin-2-yl][4-(morpholin-4-yl)piperidin-1-yl]methanone], the half-inhibitory concentration (IC50) was 30 nM. The result for `Cc1nn(C)cc1-c1nc2c(nc(C(=O)N3CCC(C(C)(C)O)CC3)n2C)c(N2CCOCC2)c1F` [compound 107, [5-(1,3-Dimethyl-1H-pyrazol-4-yl)-6-fluoro-3-methyl-7-(morpholin-4-yl)-3H-imidazo[4,5-b]pyridin-2-yl][4-(2-hydroxypropan-2-yl)piperidin-1-yl]methanone] reads 58 nM; that for `Cn1cc(-c2nc3c(nc(C(=O)N4CCC5(CC4)COC5)n3C)c(N3CCOCC3)c2F)cn1` [compound 108, [6-Fluoro-3-methyl-5-(1-methyl-1-pyrazol-4-yl)-7-(morpholin-4-yl)-3H-imidazo[4,5-b]pyridin-2-yl](2-oxa-7-azaspiro[3.5]non-7-yl)methanone], 131 nM. As to `C[C@@H]1CN(C2CCN(C(=O)c3nc4c(N5CCOCC5)cc(-c5cnn(C)c5)nc4[nH]3)CC2)C[C@H](C)O1` [compound 109, {4-[cis-2,6-Dimethylmorpholin-4-yl]piperidin-1-yl}[5-(1-methyl-1H-pyrazol-4-yl)-7-(morpholin-4-yl)-3H-imidazo[4,5-b]pyridin-2-yl]methanone], the IC50 worked out at 19 nM. For the compound `C[C@@H]1CN(C2CCN(C(=O)c3nc4c(N5CCOCC5)cc(-c5cnn(C)c5)nc4n3C)CC2)C[C@H](C)O1` [compound 110, {4-[cis-2,6-Dimethylmorpholin-4-yl]piperidin-1-yl}[3-methyl-5-(1-methyl-1H-pyrazol-4-yl)-7-(morpholin-4-yl)-3H-imidazo[4,5-b]pyridin-2-yl]methanone], the IC50 was found to be 63 nM. Regarding `Cn1cc(-c2nc3c(nc(C(=O)N4CCC(N5CCOCC5)CC4)n3C)c(N3CCOCC3)c2F)cn1` [compound 111, [6-Fluoro-3-methyl-5-(1-methyl-1-pyrazol-4-yl)-7-(morpholin-4-yl)-3H-imidazo[4,5-b]pyridin-2-yl][4-(morpholin-4-yl)piperidin-1-yl]methanone], the IC50 is 184 nM. Take `Cc1nn(C)cc1-c1nc2c(nc(C(=O)N3CCC(N4C[C@@H](C)O[C@@H](C)C4)CC3)n2C)c(N2CCOCC2)c1F` [compound 112, {4-[cis-2,6-Dimethylmorpholin-4-yl]piperidin-1-yl}[5-(1,3-dimethyl-1H-pyrazol-4-yl)-6-fluoro-3-methyl-7-(morpholin-4-yl)-3H-imidazo[4,5-b]pyridin-2-yl]methanone]: the IC50 is 15 nM.
